Reference: US20260137697A1, “THIAZOLO[5,4-D]PYRIMIDINE COMPOUNDS, COMPOSITIONS COMPRISING THEM AND USES THEREOF” (University de Montreal, priority 2022, published 2026)

Assays:
BRAF = molecular target: T1, BRAF (Homo sapiens, UniProt P15056); assay: BRAF kinase activity assay (ADP-Glo); type: biochemical; settings: Table 3; 10 μM ATP, kinase-dead MEK1 substrate
T1 construct: GST; purchased Millipore Sigma B4062-10UG
Protocol: (§1) Compound preparation: solid samples of each substance in 1dram vials were suspended in DMSO (Fisher Scientific) at a stock concentration of 20 mM. Stocks were kept at −20° C. and protected from light. If solubility of the compound at 20 mM appeared to be an issue, the initial concentration of the DMSO stock was changed to 10 mM or 5 mM.
(§2) In vitro enzymatic reactions were used for evaluating compounds intrinsic activity against BRAF, CRAF and ARAF. For BRAF and CRAF, 0.375 nM of purified GST-tagged kinases (cat. No. B4062-10UG and cat. No. R1656-10UG respectively from Millipore Sigma) were incubated with 75 nM of kinase-dead MEK1 substrate (cat. No. 40075; BPS Bioscience) in the presence of 10 μM of Ultrapure ATP (cat. No. V9102; Promega; part V915A) with and without the test compound in a buffer containing 50 mM HEPES pH 7.5, 10 mM MgCl2, 1 mM EDTA, 0.01% Brij-35 and 2 mM DTT. Separate reactions were performed with the MEK1 substrate and ATP as a blank control. ARAF kinase reactions were rigorously the same with the exception that kinase concentration was raised to 3.75 nM (cat. No. 1768-0000-1; Reaction Biology).
(§3) For compound treatment, 5 μL/well of test substance solution are placed in a 384-well proxyplate (Perkin Elmer) and mixed with 2× concentrated kinase reactions. The dilution series is selected so that nine concentrations cover a range from 100 nM to 0.01 nM. […] The final concentration of DMSO in the assay is set at 0.05%.
(§4) BRAF and CRAF kinase reactions were carried out for a total of 2 hours at 30° C. and then stopped by 1/2 dilution in ADP-Glo Reagent (cat. No. V9102; Promega; part V912C). Reactions were then incubated for 1 h at room temperature before addition of one volume of Kinase Detection Reagent (cat. No. V9102; Promega; part V917A). Plates were then equilibrated at room temperature for 30 minutes before detection of luminescence on a Synergy Neo2 plate reader (Biotek). The effect of each compound dilution on BRAF and CRAF kinase activity was expressed as % inhibition and calculated as follows. First, the internal 100% inhibition control (average of luminescence in kinase reactions comprising kinase dead MEK1 substrate alone) was subtracted from each data point. The average of DMSO (vehicle) controls (set as 0% inhibition) was established and used to calculate % inhibition:
(§5) IC50 values were obtained by plotting the kinase inhibition values and fitting the dose-activity curves using a log(agonist) versus response—variable slope (four parameters) function using either GraphPadPrism (V7.0) or Dotmatics Screening Ultra platform. Standards included in the ARAF kinase assay were Belvarafenib (MedChem Express cat. No. HY-109080; CAS No. 1446113-23-0), LXH254 (MedChem Express cat. No. HY-112089; CAS No. 1800398-38-2) and BGB283 (cat. No. HY-18957; CAS No. 1446090-79-4).

pERK, HCT116 cells = assay: Phospho-ERK inhibition, AlphaLISA p-ERK 1/2, HCT-116; type: cell-based, human; settings: Table 3; for IC50: HCT116 cells (KRAS G13D), 1 h treatment; for HCT116 pERK (Ymin %): lowest % inhibition value of the pERK IC50 curve, above −20% = no paradoxical induction
Protocol: All cancer cell lines (A375, A101D, A2058, RKO, HT29 SK-MEL 30, IPC298, HepG2, HCT-116, Lovo, SW620, SW480, NCI-H358, NCI-H2122, Calu-6, NCIH2087, NCIH1755, NCIH1666 and Mewo) were obtained from ATCC and cultured in RPM1-1640 medium (Gibco) supplemented with 5% heat inactivated fetal bovine serum (FBS, Wisent) at 37° C. under 5% CO2. Cells were maintained in T175 flasks (Greiner). They were passaged by removing the culture medium, washing once in 10 mL of room temperature Phosphate Buffered Saline (PBS; Wisent) and incubating at 37° C. with 2 mL of 0.05% Trypsin (Thermo-Fisher). Trypsin was then inactivated by adding complete growth medium and the cells were then replated in a T175 culture dish at the appropriate dilution. All cell lines were routinely tested for mycoplasma contamination. Tissue type and mutational status of each cell line can be found in Table B.
(c) Measurement of Phospho-ERK Inhibition in Cultivated Human Cancer Cell Lines by the AlphaLISA® SureFire® Ultra™ p-ERK 1/2 (Thr2O2/Tyr204)
AlphaLISA® SureFire® Ultra™ p-ERK 1/2 (Thr202/Tyr204) analysis was conducted on cells plated in 100 μL of complete RPMI-1640 growth medium in 96-well flat-bottomed transparent dishes (Costar) at a density indicated in Table C. Cells were maintained overnight at 37° C. under 5% CO2 before treatment with compounds' dilution series for one hour. The cell density in cells/cm^2 corresponds to cell number divided by the area of one well of a 96-well plate (0.143 cm^2).
In a dilution series 100 μL/well of test substance dilution prepared in complete RPMI-1640 growth media was added to the cells. The dilution series is selected so that ten concentrations cover a range from 10 μM to 0.33 nM. If necessary, the initial concentration of 10 μM is increased to 100 μM or lowered to 1 μM (as in the case of A375 and H1666 cells, which are generally more sensitive to the compounds) and further dilution is carried out accordingly. The final concentration of DMSO in the assay is set at 0.5%.
After treatment, media was removed, and cells were lysed in 50 μL of 1× AlphaScreen Ultra Lysis Buffer (Perkin Elmer). The AlphaLISA® SureFire® Ultra™ p-ERK 1/2 (Thr202/Tyr204) (PerkinElmer) reactions were performed with 5 μL of cell lysate according to the manufacturer's specifications in 384-well proxyplates (Perkin Elmer) followed by overnight incubation of the reactions at room temperature in a humidified chamber. After completion of the reactions, the signals were recorded on an EnVision plate reader (Perkin Elmer) using built in AlphaLISA® settings.
The effect of each compound dilution on the pERK signal was expressed in % inhibition and calculated as follows. An internal 100% inhibition control (1 μM trametinib, cat. No. HY-10999; MedChem Express; CAS No. 871700-17-3) was included in each plate and used as a measure of pERK background. First, the value obtained for trametinib was subtracted from each data point. The average of DMSO (vehicle) controls (set as 0% inhibition) was established and used to calculate % inhibition:
The ability of each compound to inhibit pERK signal was expressed as an IC50 value obtained by plotting the inhibition values for each data point of a dilution series and fitting the obtained curves using a log(agonist) versus response—variable slope (four parameters) function using GraphPadPrism (V7.0) or Dotmatics Screening Ultra platform.
When present, paradoxical pERK induction is inferred from the negative % inhibition values observed in the pERK IC50 curves of a compound.

CRAF = molecular target: T2, CRAF (Homo sapiens, UniProt P04049); assay: CRAF kinase activity assay (ADP-Glo); type: biochemical; settings: Table 3; 10 μM ATP, kinase-dead MEK1 substrate
T2 construct: fused on or other part: GST tag (N-terminal according to the vendor's product)
T2 sequence (P04049 whole entry Y340E/Y341E, form open, the tested form may be a part): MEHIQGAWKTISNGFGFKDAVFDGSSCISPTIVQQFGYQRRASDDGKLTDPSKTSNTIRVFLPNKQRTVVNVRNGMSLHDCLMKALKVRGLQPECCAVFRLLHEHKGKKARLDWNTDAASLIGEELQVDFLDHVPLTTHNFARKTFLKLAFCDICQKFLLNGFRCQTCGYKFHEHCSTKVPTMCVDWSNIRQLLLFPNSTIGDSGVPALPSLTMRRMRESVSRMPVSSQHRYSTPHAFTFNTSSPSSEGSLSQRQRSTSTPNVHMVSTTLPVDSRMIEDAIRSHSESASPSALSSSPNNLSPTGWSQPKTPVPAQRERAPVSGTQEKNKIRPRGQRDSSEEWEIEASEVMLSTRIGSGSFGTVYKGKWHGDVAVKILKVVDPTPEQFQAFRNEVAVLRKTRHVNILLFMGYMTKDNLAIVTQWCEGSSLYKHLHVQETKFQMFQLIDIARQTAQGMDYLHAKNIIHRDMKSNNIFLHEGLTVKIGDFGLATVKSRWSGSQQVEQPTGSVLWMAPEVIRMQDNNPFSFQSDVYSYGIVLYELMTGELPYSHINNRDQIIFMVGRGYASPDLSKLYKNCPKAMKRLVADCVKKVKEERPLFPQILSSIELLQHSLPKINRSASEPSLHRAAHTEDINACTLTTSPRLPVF
Protocol: as §1, §2, §3, §4, §5

T1 sequence (P15056 whole entry): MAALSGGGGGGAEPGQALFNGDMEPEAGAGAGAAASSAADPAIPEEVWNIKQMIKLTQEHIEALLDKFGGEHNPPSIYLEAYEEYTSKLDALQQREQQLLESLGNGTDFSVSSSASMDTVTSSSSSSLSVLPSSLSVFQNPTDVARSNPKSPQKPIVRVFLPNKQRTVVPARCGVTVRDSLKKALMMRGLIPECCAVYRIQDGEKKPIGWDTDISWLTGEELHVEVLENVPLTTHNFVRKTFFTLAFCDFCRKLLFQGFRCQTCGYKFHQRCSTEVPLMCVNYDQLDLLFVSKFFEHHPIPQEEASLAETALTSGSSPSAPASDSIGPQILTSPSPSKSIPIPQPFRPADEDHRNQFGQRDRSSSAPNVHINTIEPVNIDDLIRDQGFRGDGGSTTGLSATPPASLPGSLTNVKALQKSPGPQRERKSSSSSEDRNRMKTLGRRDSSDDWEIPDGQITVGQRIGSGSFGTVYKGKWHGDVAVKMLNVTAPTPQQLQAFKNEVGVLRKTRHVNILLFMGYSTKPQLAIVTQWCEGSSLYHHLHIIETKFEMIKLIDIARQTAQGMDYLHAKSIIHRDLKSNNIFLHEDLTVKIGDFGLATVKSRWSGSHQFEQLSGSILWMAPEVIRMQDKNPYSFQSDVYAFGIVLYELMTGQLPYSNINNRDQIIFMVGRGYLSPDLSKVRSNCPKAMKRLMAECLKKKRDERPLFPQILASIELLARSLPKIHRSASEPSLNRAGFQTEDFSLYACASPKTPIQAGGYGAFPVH

Row | Structure (SMILES) | IC50 (BRAF) [µM] | IC50 (pERK, HCT116 cells; Homo sapiens, HCT-116) [µM] | IC50 (CRAF) [µM] | IC50 (pERK, HCT116 cells) [µM] | HCT116 pERK (Ymin %) (pERK, HCT116 cells) [%]
1 | CN1CCN(S(=O)(=O)c2cn(-c3nc4c(Nc5c(F)ccc(NS(=O)(=O)c6cccc(Cl)c6Cl)c5F)ncnc4s3)c3ccccc23)CC1 [Example 12] | 0.001 to 0.01 | 1 to 10 | 0.01 to 0.05 |  | 
2 | COc1ccc(S(=O)(=O)Nc2ccc(F)c(Nc3ncnc4sc(-n5cnc6c(N)cccc65)nc34)c2F)c(C)c1Cl [Example 13] | 0.001 to 0.01 |  | 0.01 to 0.05 | 1 to 10 | −14
3 | COc1ccc(S(=O)(=O)Nc2ccc(F)c(Nc3ncnc4sc(-n5cnc6ccccc65)nc34)c2F)c(C)c1Cl [Example 14] | 0.001 to 0.01 |  | 0.01 to 0.05 | 1 to 10 | −14
4 | COc1ccc(S(=O)(=O)Nc2ccc(F)c(Nc3ncnc4sc(-n5cnc6c(N)cccc65)nc34)c2F)c(C)c1F [Example 15] | 0.001 to 0.01 |  | 0.01 to 0.05 | < 0.5 | −3
5 | COc1ccc(S(=O)(=O)Nc2ccc(F)c(Nc3ncnc4sc(-n5cnc6ccccc65)nc34)c2F)c(C)c1F [Example 16] | 0.001 to 0.01 |  | 0.01 to 0.05 | 0.5 to 1 | −8
6 | O=S(=O)(Nc1ccc(F)c(Nc2ncnc3sc(-n4cnc5c(C(F)(F)F)cccc54)nc23)c1F)c1cccc(Cl)c1Cl [Example 17] | 0.001 to 0.01 | 1 to 10 | 0.01 to 0.05 |  | 
7 | O=S(=O)(Nc1ccc(F)c(Nc2ncnc3sc(-n4cnc5c(F)cccc54)nc23)c1F)c1cccc(Cl)c1Cl [Example 18] | < 0.001 |  | < 0.01 | < 0.5 | 0
8 | O=S(=O)(Nc1ccc(F)c(Nc2ncnc3sc(-n4cnc5cc(F)c(F)cc54)nc23)c1F)c1cccc(Cl)c1Cl [Example 19] | 0.001 to 0.01 |  | < 0.01 | 0.5 to 1 | −14
9 | Cc1cc2ncn(-c3nc4c(Nc5c(F)ccc(NS(=O)(=O)c6cccc(Cl)c6Cl)c5F)ncnc4s3)c2cc1C [Example 20] | 0.001 to 0.01 |  | 0.01 to 0.05 | < 0.5 | −12
10 | O=S(=O)(Nc1ccc(F)c(Nc2ncnc3sc(-n4nnc5ccccc54)nc23)c1F)c1cccc(Cl)c1Cl [Example 21] | > 0.01 |  | 0.01 to 0.05 | 1 to 10 | −4
11 | Cc1c(F)cccc1S(=O)(=O)Nc1ccc(F)c(Nc2ncnc3sc(-n4nnc5ccccc54)nc23)c1F [Example 22] | > 0.01 |  | > 0.05 | 1 to 10 | −8
